Results published in US12459974B2, “Bicyclic peptide ligands specific for Nectin-4” (priority 2018, dated 2025).
*1 amine or outer side, *2 acyl side, *3 side chain or, on linkers, in order; H or OH if unused. Where a SMILES comes first, the peptide text is derived from it. Bridges are numbered along the chain shown (N, C = ends). [ ]: non-standard residue; d: D form. TATA = O=C(CC[*:1])N1CN(C(=O)CC[*:2])CN(C(=O)CC[*:3])C1; hArg = N=C(N)NCCCC[C@H](N)C(=O)O; Pip = O=C(O)[C@@H]1CCCCN1; βAla = NCCC(=O)O; Sar = CNCC(=O)O

target: T1, human Nectin-4 (Homo sapiens, UniProt Q96NY8); assay: Nectin-4 competition binding assay (fluorescence polarisation); details: competition with fluorescent peptide SEQ ID NO: 217; read-out: Ki
T1 sequence (Q96NY8 32-510): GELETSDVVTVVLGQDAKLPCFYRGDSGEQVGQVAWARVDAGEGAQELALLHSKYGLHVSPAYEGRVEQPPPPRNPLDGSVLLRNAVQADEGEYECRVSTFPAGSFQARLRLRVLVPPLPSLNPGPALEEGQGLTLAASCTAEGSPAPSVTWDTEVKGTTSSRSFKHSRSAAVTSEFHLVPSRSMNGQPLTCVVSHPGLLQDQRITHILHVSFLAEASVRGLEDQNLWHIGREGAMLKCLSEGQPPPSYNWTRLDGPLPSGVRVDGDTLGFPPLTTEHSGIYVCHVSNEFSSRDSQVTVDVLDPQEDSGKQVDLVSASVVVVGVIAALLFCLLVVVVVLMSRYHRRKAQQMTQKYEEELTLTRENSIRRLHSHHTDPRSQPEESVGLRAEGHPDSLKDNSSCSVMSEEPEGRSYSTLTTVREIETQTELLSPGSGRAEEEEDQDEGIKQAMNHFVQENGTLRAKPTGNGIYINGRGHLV
Protocol: Peptides were diluted to an appropriate concentration in assay buffer as described in the direct binding assay with a maximum of 5% DMSO, then serially diluted 1 in 2. Five μL of diluted peptide was added to the plate followed by 10 μL of human Nectin-4, then 10 μL fluorescent peptide added. Measurements were conducted as for the direct binding assay, however the gain was determined prior to the first measurement. Data analysis was in Systat Sigmaplot version 12.0 where the mP values were fit to a user defined cubic equation to generate a Ki value: • f=ymin+(ymax−ymin)/Lig*((Lig*((2*((Klig+Kcomp+Lig+Comp-Prot*c)^2-3*(Kcomp*(Lig-Prot*c)+Klig*(Comp-Prot*c)+Klig*Kcomp))^0.5*COS(ARCCOS((−2*(Klig+Kcomp+Lig+Comp-Prot*c)^3+9*(Klig+Kcomp+Lig+Comp-Prot*c)*(Kcomp*(Lig-Prot*c)+Klig*(Comp-Prot*c)+Klig*Kcomp)−27*(−1*Klig*Kcomp*Prot*c)/(2*((((Klig+Kcomp+Lig+Comp-Prot*c)^2−3*(Kcomp*(Lig-Prot*c)+Klig*(Comp-Prot*c)+Klig*Kcomp))^3)^0.5)))/3))−(Klig+Kcomp+Lig+Comp-Prot*c)))/((3*Klig)+((2*((Klig+Kcomp+Lig+Comp-Prot*c)^2−3*(Kcomp*(Lig-Prot*c)+Klig*(Comp-Prot*c)+Klig*Kcomp))^0.5*COS (ARCCOS ((−2*(Klig+Kcomp+Lig+Comp-Prot*c)^3+9*(Klig+Kcomp+Lig+Comp-Prot*c)*(Kcomp*(Lig-Prot*c)+Klig*(Comp-Prot*c)+Klig*Kcomp)-27*(−1*Klig*Kcomp*Prot*c))/(2*((((Klig+Kcomp+Lig+Comp-Prot*c)^2-3*(Kcomp*(Lig-Prot*c)+Klig*(Comp-Prot+c)+Klig*Kcomp))^3)^0.5))/3)−(Klig+Kcomp+Lig+Comp-Prot*c)))).
“Lig”, “KLig” and “Prot” were all defined values relating to: fluorescent peptide concentration, the Kd of the fluorescent peptide and Nectin concentration respectively.

Row | Ki [nM] | Structure (SMILES)
1 | 357 | CC[C@H](C)[C@@H]1NC(=O)[C@@H]2CCCN2C(=O)[C@H](CC(=O)O)NC(=O)[C@H](CO)NC(=O)[C@H](Cc2c[nH]c3ccccc23)NC(=O)[C@H](CC(N)=O)NC(=O)[C@H](CCCCN)NC(=O)[C@H](CCSC)NC(=O)[C@@H]2CSCCC(=O)N3CN(CN(C3)C(=O)CCSC[C@H](NC(C)=O)C(=O)N3CCC[C@H]3C(=O)N[C@@H](Cc3ccccc3)C(=O)NCC(=O)N2)C(=O)CCSC[C@@H](C(N)=O)NC(=O)[C@H](Cc2c[nH]c3ccccc23)NC1=O [BCY7540, Ac-(SEQ ID NO: 8)] (Ac-CPFGCMKNWSDPIWC-NH2; linker 1-5-15 via TATA; C-terminus assumed)
2 | 34.5 | CC[C@H](C)[C@@H]1NC(=O)[C@@H]2CCCN2C(=O)[C@H](Cc2ccccc2)NC(=O)[C@H](CO)NC(=O)[C@H](Cc2c[nH]c3ccccc23)NC(=O)[C@H](CC(N)=O)NC(=O)[C@H](CCCCN)NC(=O)[C@H](CCSC)NC(=O)[C@@H]2CSCCC(=O)N3CN(CN(C3)C(=O)CCSC[C@H](NC(C)=O)C(=O)N3CCC[C@H]3C(=O)N[C@@H](Cc3ccccc3)C(=O)NCC(=O)N2)C(=O)CCSC[C@@H](C(N)=O)NC(=O)[C@H](Cc2c[nH]c3ccccc23)NC1=O [BCY7589, Ac-(SEQ ID NO: 84)] (Ac-CPFGCMKNWSFPIWC-NH2; linker 1-5-15 via TATA; C-terminus assumed)
3 | 38.5 | CC[C@H](C)[C@@H]1NC(=O)[C@@H]2CCCN2C(=O)[C@H](Cc2ccc(O)cc2)NC(=O)[C@H](CO)NC(=O)[C@H](Cc2c[nH]c3ccccc23)NC(=O)[C@H](CC(N)=O)NC(=O)[C@H](CCCCN)NC(=O)[C@H](CCSC)NC(=O)[C@@H]2CSCCC(=O)N3CN(CN(C3)C(=O)CCSC[C@H](NC(C)=O)C(=O)N3CCC[C@H]3C(=O)N[C@@H](Cc3ccccc3)C(=O)NCC(=O)N2)C(=O)CCSC[C@@H](C(N)=O)NC(=O)[C@H](Cc2c[nH]c3ccccc23)NC1=O [BCY7590, Ac-(SEQ ID NO: 85)] (Ac-CPFGCMKNWSYPIWC-NH2; linker 1-5-15 via TATA; C-terminus assumed)
4 | 37.4 | CC[C@H](C)[C@@H]1NC(=O)[C@@H]2CCCN2C(=O)[C@H](Cc2ccc3ccccc3c2)NC(=O)[C@H](CO)NC(=O)[C@H](Cc2c[nH]c3ccccc23)NC(=O)[C@H](CC(N)=O)NC(=O)[C@H](CCCCN)NC(=O)[C@H](CCSC)NC(=O)[C@@H]2CSCCC(=O)N3CN(CN(C3)C(=O)CCSC[C@H](NC(C)=O)C(=O)N3CCC[C@H]3C(=O)N[C@@H](Cc3ccccc3)C(=O)NCC(=O)N2)C(=O)CCSC[C@@H](C(N)=O)NC(=O)[C@H](Cc2c[nH]c3ccccc23)NC1=O [BCY7592, Ac-(SEQ ID NO: 87)]
5 | 353 | CC[C@H](C)[C@@H]1NC(=O)[C@@H]2CCCN2C(=O)[C@H](Cc2c[nH]c3ccccc23)NC(=O)[C@H](CO)NC(=O)[C@H](Cc2c[nH]c3ccccc23)NC(=O)[C@H](CC(N)=O)NC(=O)[C@H](CCCCN)NC(=O)[C@H](CCSC)NC(=O)[C@@H]2CSCCC(=O)N3CN(CN(C3)C(=O)CCSC[C@H](NC(C)=O)C(=O)N3CCC[C@H]3C(=O)N[C@@H](Cc3ccccc3)C(=O)NCC(=O)N2)C(=O)CCSC[C@@H](C(N)=O)NC(=O)[C@H](Cc2ccccc2)NC1=O [BCY7596, Ac-(SEQ ID NO: 91)] (Ac-CPFGCMKNWSWPIFC-NH2; linker 1-5-15 via TATA)
6 | 169 | CC[C@H](C)[C@@H]1NC(=O)[C@@H]2CCCN2C(=O)[C@H](Cc2c[nH]c3ccccc23)NC(=O)[C@H](CO)NC(=O)[C@H](Cc2c[nH]c3ccccc23)NC(=O)[C@H](CC(N)=O)NC(=O)[C@H](CCCCN)NC(=O)[C@H](CCSC)NC(=O)[C@@H]2CSCCC(=O)N3CN(CN(C3)C(=O)CCSC[C@H](NC(C)=O)C(=O)N3CCC[C@H]3C(=O)N[C@@H](Cc3ccccc3)C(=O)NCC(=O)N2)C(=O)CCSC[C@@H](C(N)=O)NC(=O)[C@H](Cc2ccc(O)cc2)NC1=O [BCY7597, Ac-(SEQ ID NO: 92)] (Ac-CPFGCMKNWSWPIYC-NH2; linker 1-5-15 via TATA; C-terminus assumed)
7 | 21 | CC[C@H](C)[C@@H]1NC(=O)[C@@H]2CCCN2C(=O)[C@H](Cc2c[nH]c3ccccc23)NC(=O)[C@H](CO)NC(=O)[C@H](Cc2c[nH]c3ccccc23)NC(=O)[C@H](CC(N)=O)NC(=O)[C@@H]2CCCN2C(=O)[C@H](CCSC)NC(=O)[C@@H]2CSCCC(=O)N3CN(CN(C3)C(=O)CCSC[C@H](NC(C)=O)C(=O)N3CCC[C@H]3C(=O)N[C@@H](Cc3ccccc3)C(=O)NCC(=O)N2)C(=O)CCSC[C@@H](C(N)=O)NC(=O)[C@H](Cc2c[nH]c3ccccc23)NC1=O [BCY7614, Ac-(SEQ ID NO: 99)] (Ac-CPFGCMPNWSWPIWC-NH2; linker 1-5-15 via TATA; C-terminus assumed)

Row | Structure (SMILES) | Ki [nM]
8 | CC[C@H](C)[C@@H]1NC(=O)[C@@H]2CCCN2C(=O)[C@H](Cc2c[nH]c3ccccc23)NC(=O)[C@H](C)NC(=O)[C@H](Cc2c[nH]c3ccccc23)NC(=O)[C@H](CC(N)=O)NC(=O)[C@H](CCCCN)NC(=O)[C@H](CCSC)NC(=O)[C@@H]2CSCCC(=O)N3CN(CN(C3)C(=O)CCSC[C@H](NC(=O)[C@H](C)N)C(=O)N3CCC[C@H]3C(=O)N[C@@H](Cc3ccccc3)C(=O)NCC(=O)N2)C(=O)CCSC[C@@H](C(=O)N[C@H](C(=O)N[C@@H](CC(N)=O)C(=O)N[C@@H](CCCCN)C(N)=O)[C@@H](C)O)NC(=O)[C@H](Cc2c[nH]c3ccccc23)NC1=O [BCY7424, A-(SEQ ID NO: 30)-TNK] (H-ACPFGCMKNWAWPIWCTNK-NH2; linker 2-6-16 via TATA; N-terminus and C-terminus assumed) | 562
9 | CC[C@H](C)[C@@H]1NC(=O)[C@@H]2CCCN2C(=O)[C@H](Cc2c[nH]c3ccccc23)NC(=O)[C@H](CO)NC(=O)[C@H](Cc2c[nH]c3ccccc23)NC(=O)[C@H](CC(N)=O)NC(=O)[C@H](CCCCNC(=N)N)NC(=O)[C@H](CCSC)NC(=O)[C@@H]2CSCCC(=O)N3CN(CN(C3)C(=O)CCSC[C@H](NC(=O)CN(C)C(=O)CN(C)C(=O)CN(C)C(=O)CN(C)C(=O)CN(C)C(=O)CCNC(C)=O)C(=O)N3CCC[C@H]3C(=O)N[C@@H](Cc3ccccc3)C(=O)N[C@H](CC(=O)O)C(=O)N2)C(=O)CCSC[C@@H](C(N)=O)NC(=O)[C@H](Cc2c[nH]c3ccccc23)NC1=O [BCY7558, Ac-[B-Ala][Sar5]-(SEQ ID NO: 76)] (Ac-[βAla][Sar][Sar][Sar][Sar][Sar]CPF[dD]CM[hArg]NWSWPIWC-NH2; linker 7-11-21 via TATA) | 21.9
10 | CC[C@H](C)[C@@H]1NC(=O)[C@@H]2CCCCN2C(=O)[C@H](Cc2c[nH]c3ccccc23)NC(=O)[C@H](CO)NC(=O)[C@H](Cc2c[nH]c3ccccc23)NC(=O)[C@H](CC(N)=O)NC(=O)[C@H](CCCCN)NC(=O)[C@H](CCSC)NC(=O)[C@@H]2CSCCC(=O)N3CN(CN(C3)C(=O)CCSC[C@H](NC(C)=O)C(=O)N3CCC[C@H]3C(=O)N[C@@H](Cc3ccccc3)C(=O)NCC(=O)N2)C(=O)CCSC[C@@H](C(N)=O)NC(=O)[C@H](Cc2c[nH]c3ccccc23)NC1=O [BCY7595, Ac-(SEQ ID NO: 90)] (Ac-CPFGCMKNWSW[Pip]IWC-NH2; linker 1-5-15 via TATA) | 219
11 | CC[C@H](C)[C@@H]1NC(=O)[C@@H]2CCCN2C(=O)[C@H](Cc2c[nH]c3ccccc23)NC(=O)[C@H](CO)NC(=O)[C@H](Cc2c[nH]c3ccccc23)NC(=O)[C@H](CC(N)=O)NC(=O)[C@H](CCCCN)NC(=O)[C@H](CCSC)NC(=O)[C@@H]2CSCCC(=O)N3CN(CN(C3)C(=O)CCSC[C@H](NC(=O)[C@@H](CC(=O)O)NC(C)=O)C(=O)N3CCC[C@H]3C(=O)N[C@@H](Cc3ccccc3)C(=O)NCC(=O)N2)C(=O)CCSC[C@@H](C(N)=O)NC(=O)[C@H](Cc2c[nH]c3ccccc23)NC1=O [BCY7606, Ac-[dD]-(SEQ ID NO: 1)] (Ac-[dD]CPFGCMKNWSWPIWC-NH2; linker 2-6-16 via TATA) | 34
12 | CC[C@H](C)[C@@H]1NC(=O)[C@@H]2CCCN2C(=O)[C@H](Cc2c[nH]c3ccccc23)NC(=O)[C@H](CO)NC(=O)[C@H](Cc2c[nH]c3ccccc23)NC(=O)[C@H](CC(N)=O)NC(=O)[C@H](CCCCN)NC(=O)[C@H](CCSC)NC(=O)[C@@H]2CSCCC(=O)N3CN(CN(C3)C(=O)CCSC[C@H](NC(C)=O)C(=O)NCC(=O)N[C@@H](Cc3ccccc3)C(=O)NCC(=O)N2)C(=O)CCSC[C@@H](C(N)=O)NC(=O)[C@H](Cc2c[nH]c3ccccc23)NC1=O [BCY7607, Ac-(SEQ ID NO: 94)] (Ac-CGFGCMKNWSWPIWC-NH2; linker 1-5-15 via TATA) | 77
